Measurements reported in ChEMBL document CHEMBL1909046, “DrugMatrix in vitro pharmacology data”.

Columns and labels:
[1] = DRUGMATRIX: Platelet-Derived Growth Factor (PDGF) radioligand binding (ligand: [125I] PDGF); format: cell-based; conditions: nih3t3; Not Active = under 50% inhibition at 10 µM
[2] = molecular target: Protein phosphatase 3 catalytic subunit alpha (Homo sapiens, UniProt Q08209); parameters: species or system Escherichia coli;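 further: inhibition of calcineurin (PP2B) enzyme activity, measured with DiFMUP as the substrate; in other assays of this panel Not Active means under 50% inhibition at 10 µM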
[3] = molecular target: Kappa-type opioid receptor (Homo sapiens, UniProt P41145); assay: DRUGMATRIX: Opiate kappa (OP2, KOP) radioligand binding (ligand: [3H] Diprenorphine); format: cell membranes, HEK293, Membrane; conditions: hek293; Not Active = under 50% inhibition at 10 µM
[4] = DRUGMATRIX: beta-Lactamase enzyme inhibition (substrate: Nitrocefin); parameters: species or system Bacillus cereus; conditions: Not Active = under 50% inhibition at 10 µM
[5] = molecular target: Sigma non-opioid intracellular receptor 1 (Homo sapiens, UniProt Q99720); assay: DRUGMATRIX: Sigma1 radioligand binding (ligand: [3H] Haloperidol); format: cell membranes, Jurkat, Membrane; conditions: Not Active = under 50% inhibition at 10 µM
[6] = molecular target: Beta-1 adrenergic receptor (Homo sapiens, UniProt P08588); assay: DRUGMATRIX: Adrenergic beta1 radioligand binding (ligand: [125I] Cyanopindolol); format: cell membranes, CHO-K1, Membrane; conditions: cho-k1; Not Active = under 50% inhibition at 10 µM
[7] = molecular target: T1, Cathepsin G (Homo sapiens, UniProt P08311); format: tissue-based; conditions: neutrophil;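 further: inhibition of Cathepsin G enzyme activity, tested on an AMC-conjugated peptide substrate; in other assays of this panel Not Active means under 50% inhibition at 10 µM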
T1 sequence (P08311 whole entry): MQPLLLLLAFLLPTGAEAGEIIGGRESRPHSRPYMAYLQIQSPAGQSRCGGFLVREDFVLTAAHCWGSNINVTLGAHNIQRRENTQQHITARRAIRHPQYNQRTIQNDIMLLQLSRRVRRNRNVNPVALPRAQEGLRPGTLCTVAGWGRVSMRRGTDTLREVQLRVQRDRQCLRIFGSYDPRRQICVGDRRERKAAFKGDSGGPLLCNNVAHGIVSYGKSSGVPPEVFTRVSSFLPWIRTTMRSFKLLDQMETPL

Kappa-type opioid receptor, sequence (P41145 whole entry): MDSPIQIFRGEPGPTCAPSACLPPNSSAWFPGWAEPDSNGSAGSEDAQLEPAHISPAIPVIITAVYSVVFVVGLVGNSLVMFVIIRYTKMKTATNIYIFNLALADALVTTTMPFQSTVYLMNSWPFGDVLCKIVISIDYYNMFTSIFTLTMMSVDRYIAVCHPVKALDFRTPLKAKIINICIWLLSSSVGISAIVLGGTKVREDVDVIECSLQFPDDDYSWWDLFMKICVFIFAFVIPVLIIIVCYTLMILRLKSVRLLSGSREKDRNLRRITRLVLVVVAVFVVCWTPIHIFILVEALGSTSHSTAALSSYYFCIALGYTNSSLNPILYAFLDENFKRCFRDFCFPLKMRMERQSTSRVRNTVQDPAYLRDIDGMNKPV
Beta-1 adrenergic receptor, sequence (P08588 whole entry): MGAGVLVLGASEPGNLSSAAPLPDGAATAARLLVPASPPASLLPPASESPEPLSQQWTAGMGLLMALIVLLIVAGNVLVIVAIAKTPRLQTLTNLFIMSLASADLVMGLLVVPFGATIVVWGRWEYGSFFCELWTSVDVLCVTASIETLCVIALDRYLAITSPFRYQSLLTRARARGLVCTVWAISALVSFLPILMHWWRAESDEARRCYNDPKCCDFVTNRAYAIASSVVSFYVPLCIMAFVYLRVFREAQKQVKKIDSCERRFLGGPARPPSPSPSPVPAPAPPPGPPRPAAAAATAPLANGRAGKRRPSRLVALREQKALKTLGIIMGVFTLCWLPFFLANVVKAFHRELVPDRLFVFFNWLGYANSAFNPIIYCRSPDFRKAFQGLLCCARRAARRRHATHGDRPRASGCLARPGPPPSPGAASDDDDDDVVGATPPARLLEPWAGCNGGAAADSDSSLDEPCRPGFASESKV
Sigma non-opioid intracellular receptor 1, sequence (Q99720 whole entry): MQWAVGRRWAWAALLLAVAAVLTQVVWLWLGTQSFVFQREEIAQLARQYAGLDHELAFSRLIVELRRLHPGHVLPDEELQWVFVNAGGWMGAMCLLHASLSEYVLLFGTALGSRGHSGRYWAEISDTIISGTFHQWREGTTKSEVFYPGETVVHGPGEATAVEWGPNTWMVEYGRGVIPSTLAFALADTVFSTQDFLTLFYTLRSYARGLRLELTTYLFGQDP

| Compound | IC50 [1] | Ki [1] | IC50 [2] | IC50 [3] | IC50 [4] | Ki [4] | IC50 ([5]; read-out: IC50) | Ki ([5]; read-out: Ki) | IC50 [6] | IC50 [7] | IC50 ([5]; jurkat) |
| --- | --- | --- | --- | --- | --- | --- | --- | --- | --- | --- | --- |
| CN(C)CCC=C1c2ccccc2CCc2ccccc21 [AMITRIPTYLINE] | Not Active | Not Active | Not Active | Not Active | Not Active | Not Active | 1030 nM | 433 nM | Not Active | Not Active |  |
| CC(=O)Oc1ccccc1C(=O)O [ASPIRIN] | Not Active | Not Active | Not Active | Not Active | Not Active | Not Active |  |  | Not Active | Not Active | Not Active |
| CC(C)c1c(C(=O)Nc2ccccc2)c(-c2ccccc2)c(-c2ccc(F)cc2)n1CC[C@@H](O)C[C@@H](O)CC(=O)O [ATORVASTATIN] | Not Active | Not Active | Not Active | Not Active | Not Active | Not Active |  |  | Not Active | Not Active | Not Active |
| CC(=O)OC[C@H]1O[C@@H](n2ncc(=O)[nH]c2=O)[C@H](OC(C)=O)[C@@H]1OC(C)=O [AZARIBINE] | Not Active | Not Active | Not Active | Not Active | Not Active | Not Active |  |  | Not Active | Not Active | Not Active |
| C[C@H]1[C@H](NC(=O)/C(=N\OC(C)(C)C(=O)O)c2csc(N)n2)C(=O)N1S(=O)(=O)O [AZTREONAM] | Not Active | Not Active | Not Active | Not Active | Not Active | Not Active |  |  | Not Active | Not Active | Not Active |
| O=C(O)CCNC(=O)c1ccc(/N=N/c2ccc(O)c(C(=O)O)c2)cc1 [BALSALAZIDE] | Not Active | Not Active | Not Active | Not Active | Not Active | Not Active |  |  | Not Active | Not Active | Not Active |
| Cn1c(=O)c2c(ncn2C)n(C)c1=O [CAFFEINE] | Not Active | Not Active | Not Active | Not Active | Not Active | Not Active |  |  | Not Active | Not Active | Not Active |
| ClC(Cl)(Cl)Cl [CARBON TETRACHLORIDE] | Not Active | Not Active | Not Active | Not Active | Not Active | Not Active |  |  | Not Active | Not Active | Not Active |
| CO/N=C(\C(=O)N[C@@H]1C(=O)N2C(C(=O)O)=C(COC(C)=O)CS[C@H]12)c1csc(N)n1 [CEFOTAXIME] | Not Active | Not Active | Not Active | Not Active | Not Active | Not Active |  |  | Not Active | Not Active | Not Active |
| CNC1=Nc2ccc(Cl)cc2C(c2ccccc2)=[N+]([O-])C1 [CHLORDIAZEPOXIDE] | Not Active | Not Active | Not Active | Not Active | Not Active | Not Active |  |  | Not Active | Not Active | Not Active |
| Cc1cc(O)cc(C)c1Cl [CHLOROXYLENOL] | Not Active | Not Active | Not Active | Not Active | Not Active | Not Active |  |  | Not Active | Not Active | Not Active |
| CCCNC(=O)NS(=O)(=O)c1ccc(Cl)cc1 [CHLORPROPAMIDE] | Not Active | Not Active | Not Active | Not Active | Not Active | Not Active |  |  | Not Active | Not Active | Not Active |
| NS(=O)(=O)c1cc(C2(O)NC(=O)c3ccccc32)ccc1Cl (stereo not drawn) [CHLORTHALIDONE] | Not Active | Not Active | Not Active | Not Active | Not Active | Not Active |  |  | Not Active | Not Active | Not Active |
